Reference: PubChem BioAssay AID1996
Values after ≈ are worked out from the molar mass of the structure shown.

conditions: buffer; pH 7.4; 200.0 µM

solubility kinetic [µg/mL] | Compound
< 0.7 | COc1ccc(N2C(=O)C(F)(F)C2c2ccc(C)cc2)cc1OC (stereo unspecified)
59.6 (≈ 140 µM) | CCOC(=O)N1CCN(C(=O)CCc2ccc(S(=O)(=O)NCC(C)C)cc2)CC1
1.2 (≈ 3.69 µM) | Fc1ccc(NC(=S)N2CCc3[nH]c4ccccc4c3C2)cc1
9.9 (≈ 33.2 µM) | COc1ccc(/C(N)=N/OC(=O)CCc2ccccc2)cc1
33.7 (≈ 83.9 µM) | CC(C)(C)C(=O)/C=C1\SCC(=O)N1CC(=O)N1CCN(c2ccccc2)CC1
28.2 (≈ 125 µM) | O=C(Cc1ccccc1)NCc1ccncc1
40.7 (≈ 144 µM) | CCN(CC(=O)Nc1c(F)cccc1F)C(=O)C1CC1
2.2 (≈ 7.09 µM) | CC(=O)c1c[nH]c(C(=O)NCc2cccc(C(F)(F)F)c2)c1
< 0.3 | O=C(NC(=S)NC1C2CC3CC(C2)CC1C3)c1ccccc1 (stereo unspecified)
> 46.7 | COc1cc(SC)ccc1C(=O)OCC(=O)NCC(C)C
32.4 (≈ 146 µM) | Cc1cc(N2CCOCC2)nc(C(C)C)n1
> 39.6 | O=C(NCCCn1ccnc1)c1cccc(Cl)c1
10.9 (≈ 38.5 µM) | CCc1cccc(C)c1NC(=O)CCOc1ccccc1
< 0.3 | O=[N+]([O-])c1cccnc1SCc1c(F)cccc1Cl
1 (≈ 3.36 µM) | CCCNC(=O)COC(=O)c1ccc(-c2ccccc2)cc1
6.6 (≈ 21.1 µM) | Cc1ccnc(NC(=O)c2ccc3c(c2)NC(=O)C(C)S3)c1 (stereo unspecified)
> 48.9 | O=C(O)/C(=C\c1ccco1)NC(=O)c1ccc(Br)o1

solubility kinetic [µg/mL] | Compound
> 35.1 | O=C1CSC(c2cccnc2)N1CC1CC1 (stereo unspecified)
37.6 (≈ 108 µM) | CCOc1ccc(NC(=O)CN(C)C(=O)C2CCCC2)cc1OCC
> 32.1 | Cc1nc(N)sc1C(=O)OCC(C)C
> 49 | COCCCN1CN=C(NS(=O)(=O)c2ccc(C)cc2)NC1
> 42.1 | O=S(=O)(c1ccc2c(c1)CCCC2)N1CCNCC1
> 35.9 | Cc1ccccc1Nc1ncnc2c1cnn2C
0.8 (≈ 2.34 µM) | O=C(Nc1ccc(F)cc1)C1C2CCC3C(CCC21)C3(Cl)Cl (stereo unspecified)
3.8 (≈ 13.7 µM) | CC(NC(=O)NC(=O)c1cccc([N+](=O)[O-])c1)C1CC1 (stereo unspecified)
12.8 (≈ 55.4 µM) | Cc1ccc(NC(=O)Nc2cc(C)on2)cc1
> 40.8 | CC(=O)CN1C(=O)NC2(CCCc3ccccc32)C1=O (stereo unspecified)
28.1 (≈ 125 µM) | O=C1CSC(=S)N1c1ccc(O)cc1
1.9 (≈ 5.33 µM) | CN(CC(=O)Nc1cccc(F)c1)C(=O)COc1ccc2c(c1)CCC2
10.8 (≈ 94.6 µM) | Cc1csc(N)n1
27.2 (≈ 81.9 µM) | Nc1nc2ccccc2n1CCOc1ccc(Br)cc1
> 39 | Fc1ccc(NC(=S)NCc2ccccc2)cc1
> 37 | Cl.c1ccc2c(CC3=NCCN3)cccc2c1

Continued, compound first:

Compound | solubility kinetic [µg/mL]
COc1ccccc1C(=O)NC(=O)CSc1nnc2ccccn12 | > 51.4
CCCCc1ccccc1NC(=S)NC1CCCC1 | 30.5 (≈ 110 µM)
Cc1cccc(C)c1NC(=O)COC(=O)C1C2CC3OC(=O)C1C3C2 (stereo unspecified) | > 51.5
OC1(c2ccc3c(c2)OCO3)CCN(Cc2ccc(F)cc2)CC1 | > 49.4
CC(=O)c1ccc(NC(=O)C2(c3ccccc3)CC2(Cl)Cl)cc1 (stereo unspecified) | 19.6 (≈ 56.3 µM)
N#C/C(=C\c1ccc(O)c(Br)c1)C(=O)N1CCCCC1 | > 50.3
CCN(CC)Cc1nc2sc(C)c(C)c2c(=O)[nH]1 | 34.9 (≈ 132 µM)
Cc1cccc(C)c1N(CC(=O)N1CCOCC1)S(C)(=O)=O | > 49
Cc1nnc(NC(=O)CSc2nccn2-c2ccc(F)cc2)s1 | > 52.4
Cl.NC1(C(=O)O)CC1 | > 20.6
CCNC(=O)COC(=O)Cc1ccc(Cl)cc1Cl | > 43.5
COc1ccc(OC)c(NC(=O)COC(=O)COc2ccc(Nc3ccccc3)cc2)c1 | 15.7 (≈ 36 µM)
Cc1ccc(N(Cc2cc(=O)[nH]c3ccccc23)C(=O)CCl)c(C)c1 | 14.1 (≈ 39.7 µM)
Cc1cccc(C(C)C)c1NC(=O)c1cc2ccccc2o1 | 6.1 (≈ 20.8 µM)
Oc1c(C(c2ccccn2)N2CCOCC2)ccc2cccnc12 (stereo unspecified) | 1.7 (≈ 5.29 µM)
Cc1cc(C)cc(NC(=O)CC2Oc3ccc(C)cc3NC2=O)c1 (stereo unspecified) | 1.6 (≈ 4.93 µM)
CSc1ncc(Cl)c(C(=O)Nc2cccnc2)n1 | > 42.1
Cn1c(=NC(=O)COc2ccccc2)sc2ccccc21 | 0.8 (≈ 2.68 µM)
COc1ccccc1OCc1ccc(C(=O)N2CCCCC2)o1 | > 47.3
CC(C)CCNc1nc(N)c([N+](=O)[O-])c(NC2CCCCC2)n1 | < 0.1
Cc1sc2ccccc2[n+]1CC(=O)c1ccccc1.[Br-] | 42.6
Cc1ccccc1NC(=O)CN1CCc2ccccc2C1 | 24.8 (≈ 88.5 µM)
Cc1ccc(S(=O)(=O)N2CCN(C(=O)Cn3c(=O)cnc4ccccc43)CC2)c(C)c1 | > 66.1
O=c1c2cc(-c3ccccc3)sc2nc2n1CCC2 | 1.5 (≈ 5.59 µM)
Cc1cn(CCOc2ccc(Cl)cc2)c(=O)[nH]c1=O | 36.8 (≈ 131 µM)
CCCC(NC(=O)c1ccc(Br)o1)c1nc2ccccc2[nH]1 (stereo unspecified) | 6.2 (≈ 17.1 µM)
Cc1ccc([N+](=O)[O-])cc1N(CC(=O)N1CCCCC1)S(C)(=O)=O | > 53.3
Cl.O=C1C2CCCC1C(N1CCCCC1)CC2 (stereo unspecified) | > 38.7
